# PMC12649549, “Sequence Permutation Generated Lysine and Tryptophan-Rich Antimicrobial Peptides with Enhanced Therapeutic Index” (Antibiotics, 2025)
# Where two headings read alike, the source gives them in different places.
# Experiments:
# [1] = system: A. baumannii 14B0091 (Acinetobacter sp., BCRC number 14B0091)
# Summary of the method: (§1)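 Salt and pH tolerance was assessed by determining MICs in LYM medium containing 50–300 mM NaCl, 0.5–2.5 mM MgCl2, or at pH 4.5–6.5, alongside MH broth. The inoculum was 5 × 10^5 CFU/mL.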
# [2] = system: A. baumannii 14B0097 (Acinetobacter sp., BCRC number 14B0097)
# Summary of the method: as §1
# [3] = system: Escherichia coli (ATCC 25922)
# Summary of the method: as §1
# [4] = system: Pseudomonas aeruginosa Migula (ATCC 27853)
# Summary of the method: as §1
# S. aureus ATCC 25923 = system: S. aureus ATCC 25923
# Summary of the method: as §1
# S. aureus ATCC 6538 = system: S. aureus ATCC 6538
# Summary of the method: as §1
# Gram-negative bacteria = test: Geometric mean MIC and therapeutic index, Gram-negative bacteria; assay type: cell-based; details: Gram-negative bacteria
# Summary of the method: (§2)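 Selectivity index derived from human red blood cell HC10 relative to geometric mean MIC. Inoculum was 5 × 10^5 CFU/mL in Müller-Hinton or modified LYM broth, and each experiment was repeated independently three times.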
# [5] = system: Both Gram-positive and -negative bacteria; test: Geometric mean MIC, therapeutic index and fold changes of MIC, whole panel of strains; assay type: cell-based
# Summary of the method: as §2
# [6] = LYM broth, 0 mM NaCl, 16 h, 37 °C
# [7] = LYM broth, 50 mM NaCl, 16 h, 37 °C
# [8] = LYM broth, 100 mM NaCl, 16 h, 37 °C
# [9] = LYM broth, 200 mM (NaCl), 16 h, 37 °C
# [10] = LYM broth, 300 mM (NaCl), 16 h, 37 °C
# [11] = MH broth, 5 × 10^5 CFU/mL, 16 h, 37 °C, repeated three times
substance,measurement,setting,value
Ac-LKWLAKKKKWRKW-NH2 [Peptide W5K06],MIC,[1]; [6],3.13 mg/L
same,MIC,"[1]; LYM broth, 0.5 mM MgCl2",3.13 mg/L
same,MIC,"[1]; LYM broth, 1.5 mM MgCl2",3.13 mg/L
same,MIC,"[1]; LYM broth, 2.5 mM MgCl2",3.13 mg/L
same,MIC,[1]; [7],3.13 mg/L
same,MIC,[1]; [8],6.25 mg/L
same,MIC,[1]; [9],50 mg/L
same,MIC,[1]; [10],>50 mg/L
same,MIC,"[1]; LYM broth, pH 4.5",3.13 mg/L
same,MIC,"[1]; LYM broth, pH 5.5",3.13 mg/L
same,MIC,"[1]; LYM broth, pH 6.5",1.56 mg/L
same,MIC,[1]; [11],50 mg/L
same,MIC,[2]; [6],3.13 mg/L
same,MIC,"[2]; LYM broth, 0.5 mM MgCl2",3.13 mg/L
same,MIC,"[2]; LYM broth, 1.5 mM MgCl2",3.13 mg/L
same,MIC,"[2]; LYM broth, 2.5 mM MgCl2",3.13 mg/L
same,MIC,[2]; [7],3.13 mg/L
same,MIC,[2]; [8],6.25 mg/L
same,MIC,[2]; [9],50 mg/L
same,MIC,[2]; [10],>50 mg/L
same,MIC,"[2]; LYM broth, pH 4.5",3.13 mg/L
same,MIC,"[2]; LYM broth, pH 5.5",3.13 mg/L
same,MIC,"[2]; LYM broth, pH 6.5",1.56 mg/L
same,MIC,[2]; [11],50 mg/L
same,MIC,[3]; [6],6.25 mg/L
same,MIC,"[3]; LYM broth, 0.5 mM MgCl2",6.25 mg/L
same,MIC,"[3]; LYM broth, 1.5 mM MgCl2",6.25 mg/L
same,MIC,"[3]; LYM broth, 2.5 mM MgCl2",6.25 mg/L
same,MIC,[3]; [7],12.5 mg/L
same,MIC,[3]; [8],50 mg/L
same,MIC,[3]; [9],>50 mg/L
same,MIC,[3]; [10],>50 mg/L
same,MIC,"[3]; LYM broth, pH 4.5",12.5 mg/L
same,MIC,"[3]; LYM broth, pH 5.5",6.25 mg/L
same,MIC,"[3]; LYM broth, pH 6.5",3.13 mg/L
same,MIC,[3]; [11],25 mg/L
same,MIC,[4]; [6],6.25 mg/L
same,MIC,"[4]; LYM broth, 0.5 mM MgCl2",6.25 mg/L
same,MIC,"[4]; LYM broth, 1.5 mM MgCl2",6.25 mg/L
same,MIC,"[4]; LYM broth, 2.5 mM MgCl2",25 mg/L
same,MIC,[4]; [8],25 mg/L
same,MIC,[4]; [9],>50 mg/L
same,MIC,[4]; [10],>50 mg/L
same,MIC,"[4]; LYM broth, pH 4.5",25 mg/L
same,MIC,"[4]; LYM broth, pH 5.5",6.25 mg/L
same,MIC,"[4]; LYM broth, pH 6.5",3.13 mg/L
same,MIC,[4]; [11],50 mg/L
same,MIC,S. aureus ATCC 25923; [6],6.25 mg/L
same,MIC,"S. aureus ATCC 25923; LYM broth, 0.5 mM MgCl2",6.25 mg/L
same,MIC,"S. aureus ATCC 25923; LYM broth, 1.5 mM MgCl2",6.25 mg/L
same,MIC,"S. aureus ATCC 25923; LYM broth, 2.5 mM MgCl2",6.25 mg/L
same,MIC,S. aureus ATCC 25923; [7],12.5 mg/L
same,MIC,S. aureus ATCC 25923; [8],25 mg/L
same,MIC,S. aureus ATCC 25923; [9],50 mg/L
same,MIC,S. aureus ATCC 25923; [10],>50 mg/L
same,MIC,"S. aureus ATCC 25923; LYM broth, pH 4.5",6.25 mg/L
same,MIC,"S. aureus ATCC 25923; LYM broth, pH 5.5",6.25 mg/L
same,MIC,"S. aureus ATCC 25923; LYM broth, pH 6.5",3.13 mg/L
same,MIC,S. aureus ATCC 25923; [11],50 mg/L
same,MIC,S. aureus ATCC 6538; [6],6.25 mg/L
same,MIC,"S. aureus ATCC 6538; LYM broth, 0.5 mM MgCl2",3.13 mg/L
same,MIC,"S. aureus ATCC 6538; LYM broth, 1.5 mM MgCl2",3.13 mg/L
same,MIC,"S. aureus ATCC 6538; LYM broth, 2.5 mM MgCl2",6.25 mg/L
same,MIC,S. aureus ATCC 6538; [7],6.25 mg/L
same,MIC,S. aureus ATCC 6538; [8],25 mg/L
same,MIC,S. aureus ATCC 6538; [9],50 mg/L
same,MIC,S. aureus ATCC 6538; [10],>50 mg/L
same,MIC,"S. aureus ATCC 6538; LYM broth, pH 4.5",6.25 mg/L
same,MIC,"S. aureus ATCC 6538; LYM broth, pH 5.5",6.25 mg/L
same,MIC,"S. aureus ATCC 6538; LYM broth, pH 6.5",6.25 mg/L
same,MIC,S. aureus ATCC 6538; [11],50 mg/L
same,GM G− (geometric mean of the MIC values),"Gram-negative bacteria; MH broth, MIC >50 µg/mL counted as 100 µg/mL",43.5 mg/L
same,Therapeutic Index (TI) G−,Gram-negative bacteria; HC10/GM,2.5
same,GM G−/+ (geometric mean of the MIC values),"[5]; Both Gram-positive and -negative bacteria, MH broth, MIC >50 µg/mL counted as 100 µg/mL",57.4 mg/L
same,Therapeutic Index (TI) G−/+,"[5]; HC10/GM, both Gram-positive and -negative bacteria",1.9
